The values below come from patent US20150126464A1, “THERAPEUTIC DRUG AND THERAPEUTIC METHOD FOR NEUROLOGICAL DISEASES INCLUDING ALZHEIMER'S DISEASE ASSOCIATED WITH 1,25D3-MARRS” (priority 2013, published 2015).

Each structure is given as a SMILES string.

The subject of assay [1] is 5XFAD mice. As to the kind of experiment: Novel object recognition test in 5XFAD mice (Alzheimer's disease model). The following applies: i.p. once a day for 20 days, diosgenin 10 μmol/kg, memantine hydrochloride 200 μmol/kg/day, 30 min training-test interval. The format is in vivo, mouse. An excerpt: Transgenic mice (5XFAD) as an animal model of AD were obtained from the Jackson Laboratory (Bar Harbor, Me., USA). The 5XFAD mice overexpress human APP695 cDNA having Swedish mutation (K670N and M671L), Florida mutation (I716V) and London mutation (V717I) and human PS1 cDNA (M146L and L286V) under the transcriptional control of the neuron-specific mouse Thy-1 promoter (Oakley, H. et al., J Neurosci, 26, 10129-10140, 2006). They were maintained by crossing hemizygous transgenic mice with B6/SJL F1 breeders.
To investigate the effect of diosgenin on 5XFAD, hemizygous 5XFAD mice (female, 6 to 8 months old) and non-transgenic littermate wild-type mice (female, 6 to 8 months old) were used. These mice were obtained by crossing hemizygous 5XFAD mice and B6/SJL F1 mice. All mice were housed with free access to food and water and were kept in a controlled environment (22±2° C., 50±5% humidity, 12-h light/dark cycle starting at 7:00 am).
Diosgenin was dissolved in dimethyl sulfoxide (DMSO) at 10 times the final concentration to give a stock solution. The stock solution was diluted in physiological saline to the final concentration immediately before treatment. The diosgenin solution was intraperitoneally administered to 5XFAD mice once a day (10 μmol/kg=4.14 mg/kg) for 20 days. On the last day of administration (Day 20), each mouse was housed in a separate open-field box made of polyvinyl chloride (33 cm×[…]; height: 26.5 cm) and habituated to the environment for 10 min. […]
For each mouse of Example 1, Comparative Examples 1 and 2, and Reference Example 1, the path during the 10-minute habituation was tracked using a digital camera system. The distance each mouse traveled during the 10 minutes was analyzed as locomotion activity with EthoVision 3.0 (Noldus, Wageningen, The Netherlands). […] In the present invention, the ratio (%) of the exploration time for the novel object to the total exploration time was calculated as an exploration preferential index. […]

The target of assay [2] is T1, 1,25D3-MARRS (Mus musculus, UniProt P27773).
T1 construct: endogenous in cells; host or cells: mouse cortical neuron primary culture (ddY, E14), cell lysate
T1 sequence (P27773 25-505): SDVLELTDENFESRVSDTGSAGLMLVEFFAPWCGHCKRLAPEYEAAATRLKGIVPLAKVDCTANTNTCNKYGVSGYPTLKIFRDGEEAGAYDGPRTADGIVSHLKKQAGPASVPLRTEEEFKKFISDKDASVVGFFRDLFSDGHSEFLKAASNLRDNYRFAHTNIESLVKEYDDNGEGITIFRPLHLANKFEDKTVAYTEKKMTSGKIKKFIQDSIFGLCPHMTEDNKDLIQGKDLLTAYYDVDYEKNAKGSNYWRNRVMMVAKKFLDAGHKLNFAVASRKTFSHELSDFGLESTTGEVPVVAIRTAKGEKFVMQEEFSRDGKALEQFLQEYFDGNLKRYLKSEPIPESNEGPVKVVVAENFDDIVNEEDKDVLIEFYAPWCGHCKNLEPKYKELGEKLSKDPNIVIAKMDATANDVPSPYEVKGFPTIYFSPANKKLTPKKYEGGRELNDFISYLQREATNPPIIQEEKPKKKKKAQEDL
In words: Identification of the target protein for diosgenin (thermolysin proteolysis of lysate, LC/MS/MS). It is filed as binding. The following applies: mouse cortical neuron lysate, band thicker than in vehicle-treated lysate. The procedure:
A mouse cortical neuron primary culture (ddY, E14) was maintained for 24 hours without any drug treatment. The cells were lysed with M-PER (Thermo Scientific) supplemented with protease and phosphatase inhibitors. After centrifugation (20,000×g) for 15 minutes, the protein concentration of the lysates was determined using Quick Start (Bio-Rad Laboratories, Hercules, Calif., USA). The cell lysate (5.6 μg each) was added to 2 μL of a vehicle solution of 10 mM diosgenin and incubated at 4° C. for 30 minutes. The mixture was proteolyzed using 7.5 μg of thermolysin in a reaction buffer [50 mM Tris-HCl (pH 8.0), 50 mM NaCl, and 10 mM CaCl2] at room temperature for 10 minutes. To stop the proteolysis, 0.5 M EDTA (pH 8.0) was added to each sample at a ratio of 1:10. The samples were then mixed well and placed on ice. The reaction samples were electrophoresed using a 5 to 20% real gel plate (Bio Craft, Tokyo, Japan). The separated proteins were stained using a negative gel stain MS kit (Wako). The bands in the diosgenin-treated lysate that were thicker than those in the vehicle-treated lysate were cut out and prepared for mass spectrometry analysis. After alkylation using iodoacetamide and in-gel digestion by trypsin, the supernatants were analyzed by nano-LC/MS/MS using LTQ Orbitrap XL (ThermoFisher). […]

Take `C[C@@H]1CC[C@@]2(OC1)O[C@H]1C[C@H]3[C@@H]4CC=C5C[C@@H](O)CC[C@]5(C)[C@H]4CC[C@]3(C)[C@H]1[C@@H]2C` [diosgenin]: the “novel object preferential index (exploration preferential index), test session” value in assay [1] is on record as “higher than 50%”. The “direct target protein identified” value in assay [2] was “direct target protein of diosgenin was 1,25D3-MARRS”.
